{"source": "patent US20210253628A1", "about": "“COMPOUNDS, COMPOSITIONS, AND METHODS FOR TREATMENT OF ANDROGEN-MEDIATED DISEASE” (The Regents of the University of California, priority 2018, published 2021)", "key": {"CWR22-rv1 tumors": {"test_system": "CWR22-rv1 tumors", "assay": "CWR22-rv1 tumors in mice, combination treatment with Nic-S and enzalutamide"}, "CWR22Rv1": {"test_system": "CWR22Rv1", "assay": "CWR22Rv1 cell number with Nic-S with or without enzalutamide or abiraterone acetate", "assay_type": "cell-based"}, "Wnt5A": {"test_system": "Wnt5A", "assay": "Wnt5A expression by Western blot in C4-2B MDVR cells", "assay_type": "cell-based", "conditions": "C4-2B MDVR cell lysates, different concentrations"}, "AR [1]": {"test_system": "AR", "assay": "AR expression by western blot in VCaP cells", "conditions": "3 days; for AR expression: western blot, 25 μM Si-1 or Si-2 or 20 μM enzalutamide alone", "procedure": "(§1) The sensitivity of prostate cancer cells to STS inhibitors was tested using cell growth assays and clonogenic assays. Quantitative reverse transcription-PCR, and Western blotting were performed to detect expression levels of STS and AR. […] Steroid profile including DHEA and androgens was analyzed by Liquid Chromatography-Mass Spectrometry (LC-MS). STS activity was determined by 4-Methylumbelliferyl sulfate assay through a fluorescence microtiter plate reader. PSA secretion was determined by ELISA and PSA-luciferase activity was measured by reporter assay.\n(§2) The AR expression was also determined by western blot."}, "VCaP tumors": {"test_system": "VCaP tumors", "assay": "Castration relapsed VCaP xenograft tumor model", "conditions": "for Ki67 expression in relapsed VCaP tumors, single agent / tumor growth, single agent (combination study): enzalutamide 25 mg/Kg p.o. or Si-1 25 mg/Kg i.p.", "description": "Tumor volumes were determined twice weekly.\nVCaP tumors were allowed to develop in intact SCID mice and the animals were castrated after tumors reached 80-100 mm^3 of size. […] Tumor proliferation and AR expression by IHC was also examined.\nThe VCaP tumor model was then used to validate the efficacy of combination therapy."}, "VCaP cells": {"test_system": "VCaP cells", "assay": "VCaP cell growth with or without enzalutamide", "conditions": "3 days; for VCaP cell growth, single agent: 10 μM or 25 μM Si-1 or Si-2, or 20 μM enzalutamide"}, "[2]": {"test_system": "MCF-7, MDA-MB-468 and MDA-MB-231 cells", "assay": "Breast cancer cell growth (cell numbers counted)", "assay_type": "cell-based", "conditions": "different doses, 48 hrs"}, "AR [3]": {"test_system": "AR", "assay": "PSA-luciferase reporter assay (AR transcriptional activity) in VCaP cells", "assay_type": "cell-based", "procedure": "as §1, §2"}, "[4]": {"test_system": "C4-2B, LNCaP, DU145, PC3, CWR22rv1 and VCaP cells", "assay": "Prostate cancer cell growth assay (cell numbers counted)"}, "STS": {"molecular_target": "T1, STS (Homo sapiens, UniProt P08842)", "T1 construct": "A VCaP tumor model that expresses endogenous STS was employed; endogenous in cells; host or cells: VCaP prostate cancer cells", "T1 sequence (P08842 22-583)": "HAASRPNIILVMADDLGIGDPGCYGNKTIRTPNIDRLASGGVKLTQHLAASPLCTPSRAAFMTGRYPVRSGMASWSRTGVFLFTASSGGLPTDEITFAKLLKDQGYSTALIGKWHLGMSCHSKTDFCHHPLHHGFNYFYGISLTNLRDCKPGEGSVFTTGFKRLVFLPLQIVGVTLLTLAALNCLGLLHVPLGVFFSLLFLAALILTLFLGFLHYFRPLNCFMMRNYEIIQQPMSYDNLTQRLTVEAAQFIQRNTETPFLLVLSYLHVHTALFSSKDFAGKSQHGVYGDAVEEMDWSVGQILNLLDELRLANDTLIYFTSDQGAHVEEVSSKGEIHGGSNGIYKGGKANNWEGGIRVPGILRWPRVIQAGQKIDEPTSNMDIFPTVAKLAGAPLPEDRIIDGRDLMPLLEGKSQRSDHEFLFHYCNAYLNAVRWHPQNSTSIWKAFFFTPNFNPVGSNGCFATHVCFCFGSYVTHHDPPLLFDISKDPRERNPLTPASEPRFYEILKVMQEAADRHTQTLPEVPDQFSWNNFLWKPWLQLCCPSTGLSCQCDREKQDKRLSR", "assay": "STS enzymatic activity in VCaP cells (4-Methylumbelliferyl sulfate microtiter plate cellular assay, fluorescence readout)", "assay_type": "cell-based", "description": "VCaP cells were treated with 5 μM of different STSi, and STS activity was measured by microtiter plate cellular assay using fluorescence readout.\nTo evaluate the ability of STSi in inhibition of STS enzymatic activity, VCaP prostate cancer cells were treated with two synthesized STSi and STS enzymatic activity was measured. The activity assay was carried as described by Wolff, et al. (Anal Biochem, 2003. 318(2): p. 276-284). […] FIG. 3 shown the effects of other STSi on STS enzymatic activity in VCaP cells."}, "[5]": {"conditions": "in vivo; cited from earlier work"}, "[6]": {"conditions": "cited from earlier work"}}, "note": "Entries after “also recorded” stand apart in the source; their conditions may differ."}
{"smiles": "NS(=O)(=O)Oc1ccc(Cl)cc1C(=O)Nc1ccc([N+](=O)[O-])cc1Cl", "note": "[Niclosamide sulfamate, niclosamide sulfamate]", "values": [{"measurement": "toxicity", "setting": "CWR22-rv1 tumors; body weight of mice bearing CWR22-rv1 tumors", "result": "without obvious toxicity"}, {"measurement": "enhancement of enzalutamide treatment in vivo", "setting": "CWR22-rv1 tumors; tumor volume, mice bearing CWR22-rv1 tumors", "result": "synergistically enhance"}, {"measurement": "enhancement of Enza/AA treatment", "setting": "CWR22Rv1; 0.5 μM Nic-S with 20 μM enzalutamide or 5 μM abiraterone acetate", "result": "synergistically enhances"}, {"measurement": "enhancement of enzalutamide treatment in vitro", "setting": "CWR22Rv1; 0.5 μM Nic-S with 20 μM enzalutamide, 3 and 5 days", "result": "synergistically enhance"}, {"measurement": "Wnt5A expression", "setting": "Wnt5A", "result": "inhibit"}, {"measurement": "Wnt5A expression", "setting": "Wnt5A; listed as Nic-S", "result": "suppresses"}]}
{"smiles": "CNC(=O)c1ccc(N2C(=S)N(c3ccc(C#N)c(C(F)(F)F)c3)C(=O)C2(C)C)cc1F", "note": "[enzalutamide, reference compound]", "values": [{"measurement": "AR expression", "setting": "AR [1]", "result": "decreased"}, {"measurement": "Ki67 expression in relapsed VCaP tumors, single agent", "setting": "VCaP tumors; IHC", "result": "did not affect"}, {"measurement": "tumor growth, single agent (combination study)", "setting": "VCaP tumors; 3 weeks", "result": "only slighted delayed"}, {"measurement": "VCaP cell growth, single agent", "setting": "VCaP cells", "result": "slightly suppressed"}]}
{"smiles": "CCN(C(=O)C1=CCC2C3CCc4cc(OS(N)(=O)=O)ccc4C3CCC12C)C(C)C", "note": "(stereo not drawn) [Si-1]", "values": [{"measurement": "breast cancer cell growth (cell numbers)", "setting": "[2]", "result": "inhibits cell growth in a dose dependent manner"}, {"measurement": "AR transcriptional activity", "setting": "AR [3]", "result": "significantly suppressed"}, {"measurement": "AR expression, combination with enzalutamide", "setting": "AR [1]; 25 μM Si-1 or Si-2 with 20 μM enzalutamide", "result": "completely suppressed"}, {"measurement": "AR expression", "setting": "AR [1]", "result": "significantly suppressed; also recorded: significantly decreased"}, {"measurement": "AR staining / tumor AR expression in VCaP tumors (IHC)", "setting": "VCaP tumors; 25 mg/kg/d i.p., 3 weeks", "result": "significantly suppressed"}, {"measurement": "Ki67 staining in VCaP tumors (IHC)", "setting": "VCaP tumors; 25 mg/kg/d i.p., 3 weeks", "result": "less"}, {"measurement": "tumor suppression compared with control", "setting": "VCaP tumors; 25 mg/kg/d i.p., 3 weeks", "result": "around 60%"}, {"measurement": "relapsed VCaP tumor growth / tumor progression", "setting": "VCaP tumors; 25 mg/kg/d i.p., castrated mice, 3 weeks", "result": "significantly suppressed; also recorded: significantly diminished"}, {"measurement": "decrease of serum PSA", "setting": "VCaP tumors; 3 weeks of treatment, control group 300 ng/mL PSA, ELISA", "result": 50, "unit": "%"}, {"measurement": "Ki67 expression in relapsed VCaP tumors, combination with enzalutamide", "setting": "VCaP tumors; IHC, Si-1 plus enzalutamide", "result": "further lowered"}, {"measurement": "Ki67 expression in relapsed VCaP tumors, single agent", "setting": "VCaP tumors; IHC", "result": "significantly decreased"}, {"measurement": "tumor growth, combined with enzalutamide", "setting": "VCaP tumors; Si-1 25 mg/Kg i.p. plus enzalutamide 25 mg/Kg p.o., 3 weeks", "result": "further suppressed"}, {"measurement": "tumor weight, single agent (combination study)", "setting": "VCaP tumors; Si-1 25 mg/Kg i.p., 3 weeks", "result": "significantly suppressed"}, {"measurement": "tumor weight", "setting": "VCaP tumors; after 3 weeks treatment, 25 mg/kg/d i.p.", "result": "significantly decreased"}, {"measurement": "mice body weight", "setting": "VCaP tumors; compared with control group, 25 mg/kg/d i.p.", "result": "not affected"}, {"measurement": "tumor growth, single agent (combination study)", "setting": "VCaP tumors; 3 weeks", "result": "significantly suppressed"}, {"measurement": "VCaP cell growth, single agent", "setting": "VCaP cells", "result": "reduced"}, {"measurement": "VCaP cell numbers, combination with enzalutamide", "setting": "VCaP cells; Si-1 or Si-2 with 20 μM enzalutamide", "result": "further reduced"}, {"measurement": "growth of C4-2B and VCaP cells", "setting": "[4]; C4-2B and VCaP cells", "result": "inhibited"}, {"measurement": "cell growth (cell numbers)", "setting": "[4]; increasing doses, 48 hrs, C4-2B, LNCaP, DU145, PC3, CWR22rv1 and VCaP cells", "result": "inhibited cell growth in a dose dependent manner"}, {"measurement": "STS activity", "setting": "STS", "result": "inhibited"}]}
{"smiles": "O=C(Nc1ccc([N+](=O)[O-])cc1Cl)c1cc(Cl)ccc1O", "note": "[Niclosamide, 2′,5-dichloro-4′-nitrosalicylanilide]", "values": [{"measurement": "oral bioavailability", "setting": "[5]", "result": "low"}, {"measurement": "solubility", "setting": "[6]", "result": "low"}]}
